Data: PubChem BioAssay AID2060890 (Molecular Pharmacology Branch, DTP, NCI, 2025)

System: LG0703-F948-PDC complex spheroid viability
Test: Anticancer human tumor LG0703-F948-PDC patient-derived lung adenocarcinoma cell line growth inhibition [RAS]
Details: for IC50: curve of first compound; for viability, T/C: stronger effect = lower value
In short: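 Agents were tested in combination matrices in half-log decrements from a top concentration at or near clinical Cmax (10 microM if undetermined). Targets were multi-cell spheroids of tumour lines plus HUVEC and MSC stromal cells.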
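Further: spheroids exposed to agents for 7 days.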
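Wherever viability, T/C is given: 100% = DMSO vehicle wells.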

## C=CC(=O)N1CCN(c2nc(OCC3CCCN3C)nc3c(F)c(-c4nc(N)cc(C)c4C(F)(F)F)c(Cl)cc23)C(C)C1 (centres undefined) + CCn1c(-c2cc(N3CCN(C)CC3)cnc2C(C)OC)c2c3cc(ccc31)-c1csc(n1)CC(NC(=O)C1CC1C)C(=O)N1CCCC(N1)C(=O)OCC(C)(C)C2
Second compound 0.000949 µM
  IC50: > 1000 nM
Second compound 0.003 µM
  IC50: < 3.16 nM
Second compound 0.00949 µM
  IC50: < 3.16 nM
Second compound 0.03 µM
  IC50: < 3.16 nM
Second compound 0.0949 µM
  IC50: < 3.16 nM
Second compound 0.3 µM
  IC50: < 3.16 nM
Second compound 0.000949 µM, first compound 0.00316 µM
  viability, T/C: 68%
Second compound 0.000949 µM, first compound 0.01 µM
  viability, T/C: 75.1%
Second compound 0.000949 µM, first compound 0.0316 µM
  viability, T/C: 71%
Second compound 0.000949 µM, first compound 0.1 µM
  viability, T/C: 66.5%
Second compound 0.000949 µM, first compound 0.316 µM
  viability, T/C: 69.9%
Second compound 0.000949 µM, first compound 1 µM
  viability, T/C: 62.6%
Second compound 0.003 µM, first compound 0.00316 µM
  viability, T/C: 45.5%
Second compound 0.003 µM, first compound 0.01 µM
  viability, T/C: 40.5%
Second compound 0.003 µM, first compound 0.0316 µM
  viability, T/C: 43.4%
Second compound 0.003 µM, first compound 0.1 µM
  viability, T/C: 44%
Second compound 0.003 µM, first compound 0.316 µM
  viability, T/C: 47.3%
Second compound 0.003 µM, first compound 1 µM
  viability, T/C: 49%
Second compound 0.00949 µM, first compound 0.00316 µM
  viability, T/C: 24.9%
Second compound 0.00949 µM, first compound 0.01 µM
  viability, T/C: 26.1%
Second compound 0.00949 µM, first compound 0.0316 µM
  viability, T/C: 27.9%
Second compound 0.00949 µM, first compound 0.1 µM
  viability, T/C: 17.7%
Second compound 0.00949 µM, first compound 0.316 µM
  viability, T/C: 25.9%
Second compound 0.00949 µM, first compound 1 µM
  viability, T/C: 25.5%
Second compound 0.03 µM, first compound 0.00316 µM
  viability, T/C: 13.4%
Second compound 0.03 µM, first compound 0.01 µM
  viability, T/C: 14.6%
Second compound 0.03 µM, first compound 0.0316 µM
  viability, T/C: 16.2%
Second compound 0.03 µM, first compound 0.1 µM
  viability, T/C: 13.1%
Second compound 0.03 µM, first compound 0.316 µM
  viability, T/C: 18.8%
Second compound 0.03 µM, first compound 1 µM
  viability, T/C: 13.9%
Second compound 0.0949 µM, first compound 0.00316 µM
  viability, T/C: 14.2%
Second compound 0.0949 µM, first compound 0.01 µM
  viability, T/C: 16.3%
Second compound 0.0949 µM, first compound 0.0316 µM
  viability, T/C: 11.3%
Second compound 0.0949 µM, first compound 0.1 µM
  viability, T/C: 11%
Second compound 0.0949 µM, first compound 0.316 µM
  viability, T/C: 15.2%
Second compound 0.0949 µM, first compound 1 µM
  viability, T/C: 15.9%
Second compound 0.3 µM, first compound 0.00316 µM
  viability, T/C: 10.4%
Second compound 0.3 µM, first compound 0.01 µM
  viability, T/C: 8.07%
Second compound 0.3 µM, first compound 0.0316 µM
  viability, T/C: 9.51%
Second compound 0.3 µM, first compound 0.1 µM
  viability, T/C: 11.9%
Second compound 0.3 µM, first compound 0.316 µM
  viability, T/C: 11.5%
Second compound 0.3 µM, first compound 1 µM
  viability, T/C: 10.8%

## C=CC(=O)Nc1cc(Nc2nccc(-c3cn(C)c4ccccc34)n2)c(OC)cc1N(C)CCN(C)C + C=CC(=O)N1CCN(c2nc(OCC3CCCN3C)nc3c(F)c(-c4nc(N)cc(C)c4C(F)(F)F)c(Cl)cc23)C(C)C1
Second compound 0.00316 µM
  IC50: 7.32 nM
Second compound 0.01 µM
  IC50: 7.97 nM
Second compound 0.0316 µM
  IC50: 8.46 nM
Second compound 0.1 µM
  IC50: 8.29 nM
Second compound 0.316 µM
  IC50: 7.93 nM
Second compound 1 µM
  IC50: 8.3 nM
Second compound 0.00316 µM, first compound 0.00316 µM
  viability, T/C: 75.2%
Second compound 0.00316 µM, first compound 0.01 µM
  viability, T/C: 40.8%
Second compound 0.00316 µM, first compound 0.0316 µM
  viability, T/C: 16.2%
Second compound 0.00316 µM, first compound 0.1 µM
  viability, T/C: 14.6%
Second compound 0.00316 µM, first compound 0.316 µM
  viability, T/C: 10.9%
Second compound 0.00316 µM, first compound 1 µM
  viability, T/C: 8.91%
Second compound 0.01 µM, first compound 0.00316 µM
  viability, T/C: 79.8%
Second compound 0.01 µM, first compound 0.01 µM
  viability, T/C: 42.7%
Second compound 0.01 µM, first compound 0.0316 µM
  viability, T/C: 16.9%
Second compound 0.01 µM, first compound 0.1 µM
  viability, T/C: 9.65%
Second compound 0.01 µM, first compound 0.316 µM
  viability, T/C: 8.46%
Second compound 0.01 µM, first compound 1 µM
  viability, T/C: 7.04%
Second compound 0.0316 µM, first compound 0.00316 µM
  viability, T/C: 79.7%
Second compound 0.0316 µM, first compound 0.01 µM
  viability, T/C: 45%
Second compound 0.0316 µM, first compound 0.0316 µM
  viability, T/C: 16.2%
Second compound 0.0316 µM, first compound 0.1 µM
  viability, T/C: 10.3%
Second compound 0.0316 µM, first compound 0.316 µM
  viability, T/C: 10.2%
Second compound 0.0316 µM, first compound 1 µM
  viability, T/C: 6.08%
Second compound 0.1 µM, first compound 0.00316 µM
  viability, T/C: 86.3%
Second compound 0.1 µM, first compound 0.01 µM
  viability, T/C: 43%
Second compound 0.1 µM, first compound 0.0316 µM
  viability, T/C: 14.8%
Second compound 0.1 µM, first compound 0.1 µM
  viability, T/C: 10.8%
Second compound 0.1 µM, first compound 0.316 µM
  viability, T/C: 9.54%
Second compound 0.1 µM, first compound 1 µM
  viability, T/C: 6.22%
Second compound 0.316 µM, first compound 0.00316 µM
  viability, T/C: 79.2%
Second compound 0.316 µM, first compound 0.01 µM
  viability, T/C: 42.7%
Second compound 0.316 µM, first compound 0.0316 µM
  viability, T/C: 17.4%
Second compound 0.316 µM, first compound 0.1 µM
  viability, T/C: 9.84%
Second compound 0.316 µM, first compound 0.316 µM
  viability, T/C: 9.21%
Second compound 0.316 µM, first compound 1 µM
  viability, T/C: 6.05%
Second compound 1 µM, first compound 0.00316 µM
  viability, T/C: 79.5%
Second compound 1 µM, first compound 0.01 µM
  viability, T/C: 44.5%
Second compound 1 µM, first compound 0.0316 µM
  viability, T/C: 15.7%
Second compound 1 µM, first compound 0.1 µM
  viability, T/C: 10.2%
Second compound 1 µM, first compound 0.316 µM
  viability, T/C: 9.74%
Second compound 1 µM, first compound 1 µM
  viability, T/C: 5.04%
